Test results as given in US10483329B2, “Hole transporting material, hole transporting layer, OLED display panel electronic device comprising the same” (SHANGHAI TIANMA AM-OLED CO., LTD., priority 2016, dated 2019).
≈ marks a conversion by molar mass, not a printed value.

Test: Solubility in NMP
Type: physicochemical
Details: organic solvent or mixture; solvent NMP (N-methylpyrrolidone)

| SMILES | solubility |
| --- | --- |
| CC1(C)c2cc(N(c3ccc(-c4ccccc4)cc3)c3ccc(-c4ccccc4)cc3)ccc2-c2ccc(N(c3ccc(-c4ccccc4)cc3)c3ccc(-c4ccccc4)cc3)cc21 [Comparison Example 2, reference compound] | 5.2 mg/mL (≈ 6.24 mM) |
| c1ccc(-c2ccc(N(c3ccc(-c4ccccc4)cc3)c3ccc(N(c4ccc(-c5ccccc5)cc4)c4ccc(-c5ccccc5)cc4)cc3)cc2)cc1 [Comparison Example 4, reference compound] | 2.2 mg/mL (≈ 3.07 mM) |
| Cc1cccc(-c2ccc(N(c3ccc(-c4cccc(C)c4)cc3)c3ccc4c(c3)C(C)(C)c3cc(N(c5ccc(-c6cccc(C)c6)cc5)c5ccc(-c6cccc(C)c6)cc5)ccc3-4)cc2)c1 [Example 2] | 28 mg/mL (≈ 31.5 mM) |
| Cc1cc(N(c2ccc3c(c2)C(C)(C)c2ccccc2-3)c2ccc3c(c2)C(C)(C)c2ccccc2-3)ccc1-c1ccc(N(c2ccc3c(c2)C(C)(C)c2ccccc2-3)c2ccc3c(c2)C(C)(C)c2ccccc2-3)cc1 [Example 4] | 35 mg/mL (≈ 36.2 mM) |
| Cc1cccc(C)c1-c1ccc(N(c2ccc3c(c2)C(C)(C)c2ccccc2-3)c2ccc3c(c2)C(C)(C)c2cc(N(c4ccc(-c5c(C)cccc5C)cc4)c4ccc5c(c4)C(C)(C)c4ccccc4-5)ccc2-3)cc1 [Example 3] | 30 mg/mL (≈ 30.9 mM) |
| Cc1cc(-c2ccc(N(c3ccc(-c4ccccc4)cc3)c3ccc4c(c3)C(C)(C)c3ccccc3-4)cc2)cc(C)c1N(c1ccc(-c2ccccc2)cc1)c1ccc2c(c1)C(C)(C)c1ccccc1-2 [Example 1] | 22 mg/mL (≈ 24.4 mM) |
| Cc1cccc(C)c1-c1ccc(N(c2ccc(-c3ccccc3)cc2)c2ccc(-c3ccc(N(c4ccc(-c5ccccc5)cc4)c4ccc(-c5c(C)cccc5C)cc4)cc3)cc2)cc1 [Comparison Example 3, reference compound] | 2.9 mg/mL (≈ 3.42 mM) |
